Test results from ChEMBL document CHEMBL1123545 (J Med Chem, 1986).
Converted amounts (≈) assume the structure as drawn.

Assays:
[1] = test system: Mus musculus; experiment: Compound was evaluated for antitumor activity against L1210 leukemia in mice after subcutaneous administration (Q2Dx5) at a dose 9 mg/kg; type: functional; settings: for ILS at 9 mg/kg: Mus musculus, L1210, sc
[2] = test system: Mus musculus; experiment: (§1) Antitumor activity against L1210 leukemia in mice after subcutaneous administration (Q2Dx5) at a dose 18 mg/kg out of 10 mice tested; type: functional
[3] = test system: Mus musculus; experiment: (§2) Antitumor activity against L1210 leukemia in mice after subcutaneous administration (Q2Dx5) at a dose 12 mg/kg out of 10 mice tested; type: functional
[4] = test system: Mus musculus; experiment: Compound was evaluated for antitumor activity against L1210 leukemia in mice after subcutaneous administration (Q2Dx5) at 24 mg/kg; type: functional
[5] = test system: Mus musculus; experiment: Compound was evaluated for antitumor activity against L1210 leukemia in mice after subcutaneous administration (Q2Dx5) at a dose 18 mg/kg; type: functional; settings: for ILS at 18 mg/kg: L1210, sc
[6] = test system: Mus musculus; experiment: (§3) Antitumor activity against L1210 leukemia in mice after subcutaneous administration (Q2Dx5) at a dose 32 mg/kg out of 10 mice tested; type: ADME, organism-based; parameters: dose 32 mg/kg, route subcutaneous; settings: in vivo, sc
[7] = test system: Mus musculus; experiment: (§4) Antitumor activity against L1210 leukemia in mice after subcutaneous administration (Q2Dx5) at a dose 9 mg/kg out of 10 mice tested; type: ADME, organism-based; parameters: dose 9 mg/kg, route subcutaneous; settings: in vivo, sc
[8] = test system: Mus musculus; experiment: as §4; type: functional
[9] = test system: Mus musculus; experiment: as §3; type: functional
[10] = test system: Mus musculus; experiment: Compound was evaluated for antitumor activity against L1210 leukemia in mice after subcutaneous administration (Q2Dx5) at 32 mg/kg; type: functional
[11] = test system: Mus musculus; experiment: as §1; type: ADME, organism-based; parameters: dose 18 mg/kg, route subcutaneous; settings: in vivo, sc
[12] = test system: Mus musculus; experiment: Compound was evaluated for antitumor activity against L1210 leukemia in mice after subcutaneous administration (Q2Dx5) at a dose 32 mg/kg; type: functional; settings: L1210, sc
[13] = test system: Mus musculus; experiment: as §2; type: ADME, organism-based; parameters: dose 12 mg/kg, route subcutaneous; settings: in vivo, sc
[14] = test system: Mus musculus; experiment: Compound was evaluated for antitumor activity against L1210 leukemia in mice after subcutaneous administration (Q2Dx5) at 18 mg/kg; type: functional
[15] = test system: Mus musculus; experiment: Compound was evaluated for antitumor activity against L1210 leukemia in mice after subcutaneous administration (Q2Dx5) at a dose 24 mg/kg; type: functional; settings: for ILS at 24 mg/kg: L1210, sc
[16] = test system: Mus musculus; experiment: (§5) Antitumor activity against L1210 leukemia in mice after subcutaneous administration (Q2Dx5) at a dose 24 mg/kg out of 10 mice tested; type: ADME, organism-based; parameters: dose 24 mg/kg, route subcutaneous; settings: in vivo, sc
[17] = test system: Mus musculus; experiment: Compound was evaluated for antitumor activity against L1210 leukemia in mice after subcutaneous administration (Q2Dx5) at a dose 12 mg/kg; type: functional; settings: for ILS at 12 mg/kg: L1210, sc
[18] = test system: Mus musculus; experiment: as §5; type: functional
[19] = test system: L1210; experiment: (§6) Compound was evaluated for transport properties against L1210 cells for influx; type: functional, Mus musculus
[20] = molecular target: T1, Dihydrofolate reductase (Mus musculus, UniProt P00375); experiment: Compound was evaluated for binding affinity against Dihydrofolate reductase of L1210 cells; type: cell-based
T1 sequence (P00375 whole entry): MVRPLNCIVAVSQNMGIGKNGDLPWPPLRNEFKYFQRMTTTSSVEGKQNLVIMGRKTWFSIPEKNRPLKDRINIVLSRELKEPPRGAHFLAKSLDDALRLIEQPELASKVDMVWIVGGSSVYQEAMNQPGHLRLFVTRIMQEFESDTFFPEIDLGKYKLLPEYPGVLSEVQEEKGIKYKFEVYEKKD

[21] = test system: L1210; experiment: Compound was evaluated for growth inhibition and minimal inhibitory concentration was reported against L1210 cells.; type: functional, Mus musculus
[22] = test system: L1210; experiment: as §6; type: functional, cell-based, Mus musculus
[23] = test system: Mus musculus; experiment: (§7) Antitumor activity against L1210 leukemia in mice after subcutaneous administration (Q2Dx5) at a dose 24 mg/kg out of 3 mice tested; type: functional
[24] = test system: Mus musculus; experiment: Antitumor activity against L1210 leukemia in mice after subcutaneous administration (Q2Dx5) at a dose 18/mg/kg out of 9 mice tested; type: functional
[25] = test system: L1210; experiment: Compound was evaluated for transport properties against L1210 cells for efflux; type: functional, Mus musculus
[26] = test system: Mus musculus; experiment: (§8) Antitumor activity against L1210 leukemia in mice after subcutaneous administration (Q2Dx5) at a dose 9 mg/kg out of 6 mice tested; type: functional
[27] = test system: Mus musculus; experiment: (§9) Antitumor activity against L1210 leukemia in mice after subcutaneous administration (Q2Dx5) at a dose 12 mg/kg out of 9 mice tested; type: functional
[28] = test system: Mus musculus; experiment: Antitumor activity against L1210 leukemia in mice after subcutaneous administration (Q2Dx5) at a dose 18 mg/kg out of 9 mice tested; type: ADME, organism-based; parameters: dose 18 mg/kg, route subcutaneous; settings: in vivo, sc
[29] = test system: Mus musculus; experiment: as §8; type: ADME, organism-based; parameters: dose 9 mg/kg, route subcutaneous; settings: in vivo, sc
[30] = test system: Mus musculus; experiment: as §7; type: ADME, organism-based; parameters: dose 24 mg/kg, route subcutaneous; settings: in vivo, sc
[31] = test system: Mus musculus; experiment: as §9; type: ADME, organism-based; parameters: dose 12 mg/kg, route subcutaneous; settings: in vivo, sc
[32] = test system: Enterococcus faecium; experiment: Compound was evaluated for growth inhibition against Streptococcus faecium ATCC 8043; type: functional, organism-based
[33] = test system: Lacticaseibacillus casei; experiment: Compound was evaluated for growth inhibition against Lactobacillus casei ATCC 7469; type: functional, organism-based
[34] = test system: Mus musculus; experiment: (§10) Antitumor activity against L1210 leukemia in mice after subcutaneous administration (Q2Dx5) at a dose 24 mg/kg out of 9 mice tested; type: functional
[35] = test system: Mus musculus; experiment: (§11) Antitumor activity against L1210 leukemia in mice after subcutaneous administration (Q2Dx5) at a dose 32 mg/kg out of 6 mice tested; type: ADME, organism-based; parameters: dose 32 mg/kg, route subcutaneous; settings: in vivo, sc
[36] = test system: Mus musculus; experiment: as §11; type: functional
[37] = test system: Mus musculus; experiment: (§12) Antitumor activity against L1210 leukemia in mice after subcutaneous administration (Q2Dx5) at a dose 12 mg/kg out of 3 mice tested; type: functional
[38] = test system: Mus musculus; experiment: as §12; type: ADME, organism-based; parameters: dose 12 mg/kg, route subcutaneous; settings: in vivo, sc
[39] = test system: Mus musculus; experiment: as §10; type: ADME, organism-based; parameters: dose 24 mg/kg, route subcutaneous; settings: in vivo, sc
[40] = test system: Mus musculus; experiment: Antitumor activity against L1210 leukemia in mice after subcutaneous administration (Q2Dx5) at a dose 17 mg/kg out of 9 mice tested; type: functional
[41] = Enterococcus faecium, ATCC 8043, read-out: IC50

## CCC(Cc1cnc2nc(N)nc(N)c2n1)c1ccc(C(=O)NC(CCC(=O)O)C(=O)O)cc1 (racemic)
[1]
  MST: 15.5 days
  ILS at 9 mg/kg: 135%
[2]
  30 days survivors: 0
[3]
  30 days survivors: 0
[4]
  MST: 20.3 days
[5]; Mus musculus
  ILS at 18 mg/kg: 193%
[6]
  Toxic deaths: 10
[7]
  Toxic deaths: 0
[8]
  30 days survivors: 0
[9]
  30 days survivors: 0
[10]
  MST: 16 days
[11]
  Toxic deaths: 0
[12]
  ILS at 32 mg/kg: 67%
[13]
  Toxic deaths: 0
[14]
  MST: 19.3 days
[15]
  ILS at 24 mg/kg: 207%
[16]
  Toxic deaths: 2
[17]
  MST: 16.7 days
  ILS at 12 mg/kg: 153%
[18]
  30 days survivors: 2

## C[C@H](Cc1cnc2nc(N)nc(N)c2n1)c1ccc(C(=O)N[C@@H](CCC(=O)O)C(=O)O)cc1 (stereo in doubt; l-L-15a)
[19]
  k: 0.267 min⁻¹
[20]
  Ki: 3.17 pM
[21]
  MIC50: 1.18 nM (≈ 0.535 ng/mL)
[22]
  Ki: 1900 nM

## CC[C@H](Cc1cnc2nc(N)nc(N)c2n1)c1ccc(C(=O)N[C@@H](CCC(=O)O)C(=O)O)cc1
[23]
  30 days survivors: 0
[24]
  30 days survivors: 1
[1]
  MST: 18.3 days
  ILS at 9 mg/kg: 177%
[25]
  k: 0.253 min⁻¹
[26]
  30 days survivors: 0
[5]
  MST: 17.5 days
  ILS at 18 mg/kg: 165%
[27]
  30 days survivors: 0
[28]
  Toxic deaths: 5
[21]; Mus musculus
  MIC50: 0.43 nM (≈ 0.201 ng/mL)
[29]
  Toxic deaths: 0
[30]
  Toxic deaths: 3
[31]
  Toxic deaths: 3
[22]
  Ki: 1580 nM
[15]
  MST: 10 days
  ILS at 24 mg/kg: 55%
[17]
  MST: 19.8 days
  ILS at 12 mg/kg: 199%

## C[C@H](Cc1cnc2nc(N)nc(N)c2n1)c1ccc(C(=O)N[C@@H](CCC(=O)O)C(=O)O)cc1 (stereo in doubt; d-L-15a)
[19]
  k: 0.258 min⁻¹
[20]
  Ki: 4.24 pM
[21]; Mus musculus
  MIC50: 0.68 nM (≈ 0.308 ng/mL)
[22]
  Ki: 1910 nM

## CCC(CC1=Nc2c(N)nc(N)nc2NC1)c1ccc(C(=O)NC(CCC(=O)O)C(=O)O)cc1 (racemic)
[32]; [41]
  IC50: 1.1 ng/mL (≈ 2.34 nM)

## CCC(CC1CNc2nc(N)nc(N)c2N1)c1ccc(C(=O)NC(CCC(=O)O)C(=O)O)cc1 (racemic)
[32]; [41]
  IC50: 2.6 ng/mL (≈ 5.51 nM)

## CN(Cc1cnc2nc(N)nc(N)c2n1)c1ccc(C(=O)N[C@@H](CCC(=O)O)C(=O)O)cc1 [METHOTREXATE]
[1]
  ILS: 137%
  MST: 15.7 days
[2]
  30 days survivors: 0
[3]
  30 days survivors: 0
[25]
  k: 0.213 min⁻¹
[33]
  IC50: 0.013 ng/mL (≈ 0.0286 nM)
[5]
  ILS: 119%
  MST: 14.5 days
[7]
  Toxic deaths: 0
[21]; Mus musculus
  MIC50: 2.48 nM (≈ 1.13 ng/mL)
[8]
  30 days survivors: 0
[11]
  Toxic deaths: 6
[13]
  Toxic deaths: 1
[22]
  Ki: 5610 nM
[15]
  MST: 9.6 days
  ILS at 24 mg/kg: 46%
[16]
  Toxic deaths: 10
[17]
  MST: 16.3 days
[32]
  IC50: 0.4 ng/mL (≈ 0.88 nM)
[18]
  30 days survivors: 0

## CC[C@H](CC1CNc2nc(N)nc(N)c2N1)c1ccc(C(=O)N[C@@H](CCC(=O)O)C(=O)O)cc1 (mixture of isomers)
[32]; [41]
  IC50: 2.5 ng/mL

## CC[C@@H](CC1=Nc2c(N)nc(N)nc2NC1)c1ccc(C(=O)N[C@@H](CCC(=O)O)C(=O)O)cc1 (stereo in doubt; form 1)
[32]
  IC50: 1.1 ng/mL (≈ 2.34 nM)

## CC[C@@H](CC1=Nc2c(N)nc(N)nc2NC1)c1ccc(C(=O)N[C@@H](CCC(=O)O)C(=O)O)cc1 (stereo in doubt; form 2)
[32]; [41]
  IC50: 1.1 ng/mL (≈ 2.34 nM)

## CC[C@@H](Cc1cnc2nc(N)nc(N)c2n1)c1ccc(C(=O)N[C@@H](CCC(=O)O)C(=O)O)cc1
[34]
  30 days survivors: 0
[34]; L1210, sc
  ILS at 24 mg/kg: 163%
[1]
  MST: 15.7 days
[35]
  Toxic deaths: 1
[25]
  k: 0.249 min⁻¹
[36]
  30 days survivors: 0
[5]
  MST: 17.3 days
  ILS at 18 mg/kg: 187%
[28]
  Toxic deaths: 0
[21]; Mus musculus
  MIC50: 1.52 nM (≈ 0.711 ng/mL)
[37]
  30 days survivors: 0
[10]
  MST: 18.8 days
[38]
  Toxic deaths: 0
[12]
  ILS at 32 mg/kg: 181%
[39]
  Toxic deaths: 0
[22]
  Ki: 1620 nM
[40]
  30 days survivors: 0
[17]
  ILS at 12 mg/kg: 138%

## CC[C@H](CC1CNc2nc(N)nc(N)c2N1)c1ccc(C(=O)N[C@@H](CCC(=O)O)C(=O)O)cc1 (stereo in doubt)
[32]
  IC50: 3.1 ng/mL (≈ 6.57 nM)
